Among the data in PubChem BioAssay AID1259407 (Chemical Carcinogenesis Research Information System (CCRIS), 2018) are mutagenic call values, retold here.

Active and inactive are the calls of the source. No rule for the calls is given here.

The data set has as its system CCRIS mutagenicity, Ames/micronucleus/aberration tests. The data set can be described thus: CCRIS mutagenicity studies.

Turning to `O[C@@H]1C=C2c3ccccc3-c3cccc(c32)[C@H]1O`, the mutagenic call (Test System: AMES SALMONELLA TYPHIMURIUM, Strain/Indicator: TM677, Metabolic Activation: NONE, Method: PREINCUBATION) was “active; positive” and the mutagenic call (Test System: AMES SALMONELLA TYPHIMURIUM, Strain/Indicator: TM677, Metabolic Activation: RAT, LIVER, POSTMITOCHONDRIAL SUPERNATANT, AROCLOR 1254, Method: PREINCUBATION) was “active; positive”.

With `CN(CCCC(=O)c1cccnc1)N=O`, the mutagenic call is, setting by setting: (Test System: AMES SALMONELLA TYPHIMURIUM, Strain/Indicator: TA100, Metabolic Activation: NONE, Method: PREINCUBATION) “inactive; negative”; (Test System: AMES SALMONELLA TYPHIMURIUM, Strain/Indicator: TA100, Metabolic Activation: RABBIT, LIVER, S-9, Method: PREINCUBATION) “active; positive”; (Test System: AMES SALMONELLA TYPHIMURIUM, Strain/Indicator: TA100, Metabolic Activation: RABBIT, LUNG, CLARA CELLS, Method: PREINCUBATION) “inactive; negative”; (Test System: AMES SALMONELLA TYPHIMURIUM, Strain/Indicator: TA100, Metabolic Activation: RABBIT, LUNG, MACROPHAGES, Method: PREINCUBATION) “inactive; negative”; (Test System: AMES SALMONELLA TYPHIMURIUM, Strain/Indicator: TA100, Metabolic Activation: RABBIT, LUNG, TYPE II CELLS, Method: PREINCUBATION) “inactive; negative”; (Test System: AMES SALMONELLA TYPHIMURIUM, Strain/Indicator: TA100, Metabolic Activation: RAT LIVER S-9, AROCLOR 1254, Method: PREINCUBATION) “inactive; negative”. In addition, the mutagenic call is, setting by setting: (Test System: AMES SALMONELLA TYPHIMURIUM, Strain/Indicator: TA100, Metabolic Activation: RAT, LIVER, S-9, AROCLOR 1254, Method: STANDARD PLATE) “active; positive”; (Test System: AMES SALMONELLA TYPHIMURIUM, Strain/Indicator: TA1530, Metabolic Activation: RABBIT, LIVER, S-9, Method: PREINCUBATION) “active; positive”; (Test System: AMES SALMONELLA TYPHIMURIUM, Strain/Indicator: TA1530, Metabolic Activation: RABBIT, LUNG, CLARA CELLS, Method: PREINCUBATION) “inactive; negative”; (Test System: AMES SALMONELLA TYPHIMURIUM, Strain/Indicator: TA1530, Metabolic Activation: RABBIT, LUNG, MACROPHAGES, Method: PREINCUBATION) “inactive; negative”; (Test System: AMES SALMONELLA TYPHIMURIUM, Strain/Indicator: TA1530, Metabolic Activation: RABBIT, LUNG, TYPE II CELLS, Method: PREINCUBATION) “inactive; negative”; (Test System: AMES SALMONELLA TYPHIMURIUM, Strain/Indicator: TA1535, Metabolic Activation: HAMSTER, LIVER, MICROSOMES, 3-METHYLCHOLANTHRENE, Method: PREINCUBATION) “active; positive”. The mutagenic call is “active; positive” (Test System: AMES SALMONELLA TYPHIMURIUM, Strain/Indicator: TA1535, Metabolic Activation: HAMSTER, LIVER, MICROSOMES, AROCLOR 1254, Method: PREINCUBATION); “active; positive” (Test System: AMES SALMONELLA TYPHIMURIUM, Strain/Indicator: TA1535, Metabolic Activation: HAMSTER, LIVER, MICROSOMES, DEXAMETHASONE, Method: PREINCUBATION); “active; positive” (Test System: AMES SALMONELLA TYPHIMURIUM, Strain/Indicator: TA1535, Metabolic Activation: HAMSTER, LIVER, MICROSOMES, ETHANOL, Method: PREINCUBATION); “active; positive” (Test System: AMES SALMONELLA TYPHIMURIUM, Strain/Indicator: TA1535, Metabolic Activation: HAMSTER, LIVER, MICROSOMES, ISOSAFROL, Method: PREINCUBATION); “active; positive” (Test System: AMES SALMONELLA TYPHIMURIUM, Strain/Indicator: TA1535, Metabolic Activation: HAMSTER, LIVER, MICROSOMES, PHENOBARBITAL, Method: PREINCUBATION); “active; positive” (Test System: AMES SALMONELLA TYPHIMURIUM, Strain/Indicator: TA1535, Metabolic Activation: HAMSTER, LIVER, S-9, 3-METHYLCHOLANTHRENE, Method: PREINCUBATION). Further, the mutagenic call was “active; positive” (Test System: AMES SALMONELLA TYPHIMURIUM, Strain/Indicator: TA1535, Metabolic Activation: HAMSTER, LIVER, S-9, AROCLOR 1254, Method: PREINCUBATION); “active; positive” (Test System: AMES SALMONELLA TYPHIMURIUM, Strain/Indicator: TA1535, Metabolic Activation: HAMSTER, LIVER, S-9, DEXAMETHASONE, Method: PREINCUBATION); “active; positive” (Test System: AMES SALMONELLA TYPHIMURIUM, Strain/Indicator: TA1535, Metabolic Activation: HAMSTER, LIVER, S-9, ETHANOL, Method: PREINCUBATION); “active; positive” (Test System: AMES SALMONELLA TYPHIMURIUM, Strain/Indicator: TA1535, Metabolic Activation: HAMSTER, LIVER, S-9, ISOSAFROL, Method: PREINCUBATION); “active; positive” (Test System: AMES SALMONELLA TYPHIMURIUM, Strain/Indicator: TA1535, Metabolic Activation: HAMSTER, LIVER, S-9, PHENOBARBITAL, Method: PREINCUBATION); “inactive; negative” (Test System: AMES SALMONELLA TYPHIMURIUM, Strain/Indicator: TA1535, Metabolic Activation: NONE, Method: STANDARD PLATE). Moreover, the mutagenic call is, setting by setting: (Test System: AMES SALMONELLA TYPHIMURIUM, Strain/Indicator: TA1535, Metabolic Activation: RAT, LIVER, HEPATOCYTES, AROCLOR 1254, Method: STANDARD PLATE) “active; positive”; (Test System: AMES SALMONELLA TYPHIMURIUM, Strain/Indicator: TA1535, Metabolic Activation: RAT, LIVER, HEPATOCYTES, Method: STANDARD PLATE) “active; positive”; (Test System: AMES SALMONELLA TYPHIMURIUM, Strain/Indicator: TA1535, Metabolic Activation: RAT, LIVER, S-9, AROCLOR 1254, Method: STANDARD PLATE) “active; positive”; (Test System: AMES SALMONELLA TYPHIMURIUM, Strain/Indicator: TA1535, Metabolic Activation: RAT, LIVER, S-9, Method: STANDARD PLATE) “inactive; negative”; (Test System: AMES SALMONELLA TYPHIMURIUM, Strain/Indicator: TA1535, Metabolic Activation: RAT, TRACHEAL EPITHELIAL CELLS, AROCLOR 1254, Method: STANDARD PLATE) “inactive; negative”; (Test System: AMES SALMONELLA TYPHIMURIUM, Strain/Indicator: TA1535, Metabolic Activation: RAT, TRACHEAL EPITHELIAL CELLS, Method: STANDARD PLATE) “inactive; negative”. In addition, the mutagenic call reads like this: (Test System: AMES SALMONELLA TYPHIMURIUM, Strain/Indicator: TA7004, Metabolic Activation: HAMSTER LIVER S-9, AROCLOR 1254, Method: PREINCUBATION) “active; positive”; (Test System: AMES SALMONELLA TYPHIMURIUM, Strain/Indicator: TA7004, Metabolic Activation: NONE, Method: PREINCUBATION) “inactive; negative”; (Test System: AMES SALMONELLA TYPHIMURIUM, Strain/Indicator: TA7004, Metabolic Activation: RAT LIVER S-9, AROCLOR 1254, Method: PREINCUBATION) “active; positive”; (Test System: AMES SALMONELLA TYPHIMURIUM, Strain/Indicator: YG7108-2A6-OR, Metabolic Activation: NONE, Method: PREINCUBATION) “active; positive”; (Test System: AMES SALMONELLA TYPHIMURIUM, Strain/Indicator: YG7108-2A6, Metabolic Activation: NONE, Method: PREINCUBATION) “active; positive”; (Test System: AMES SALMONELLA TYPHIMURIUM, Strain/Indicator: YG7108-PCW, Metabolic Activation: NONE, Method: PREINCUBATION) “inactive; negative”. Further, the mutagenic call was “active; positive” (Test System: AMES SALMONELLA TYPHIMURIUM, Strain/Indicator: YG7108, Metabolic Activation: RAT LIVER S-9, PHENOBARBITAL AND 5,6-BENZOFLAVONE, Method: PREINCUBATION); “active; positive” (Test System: CHINESE HAMSTER V-79, Strain/Indicator: V-79 (HPRT)/6-THIOGUANINE, Metabolic Activation: RAT, HEPATOCYTES); “inactive; negative” (Test System: CHINESE HAMSTER V-79, Strain/Indicator: V-79 (HPRT)/6-THIOGUANINE, Metabolic Activation: RAT, HEPATOMA, H4IIE CELLS); “active; positive” (Test System: CHINESE HAMSTER V-79, Strain/Indicator: V-79 (HPRT)/6-THIOGUANINE, Metabolic Activation: RAT, LIVER, S-9, AROCLOR 1254); “active; positive” (Test System: E. COLI, Strain/Indicator: NR3835, Metabolic Activation: HOST-MEDIATED, Method: IN VIVO-IN VITRO); “active; positive” (Test System: UDS RABBIT LUNG CLARA CELLS, Strain/Indicator: THY INCORP, Metabolic Activation: NONE, Method: LIQUID SCINTILLATION COUNTING). Further, the mutagenic call was “inactive; negative” (Test System: UDS RABBIT LUNG MACROPHAGES, Strain/Indicator: THY INCORP, Metabolic Activation: NONE, Method: LIQUID SCINTILLATION COUNTING); “active; positive” (Test System: UDS RABBIT LUNG TYPE II CELLS, Strain/Indicator: THY INCORP, Metabolic Activation: NONE, Method: LIQUID SCINTILLATION COUNTING); “active; positive” (Test System: UDS RODENT HEPATOCYTES, Strain/Indicator: THY INCORP (NON-S-PHASE), Method: AUTORADIOGRAPHY).
